Test results reported in EP4707280A1, “1,4-CINEOLE DERIVATIVE AND INTERMEDIATE THEREOF, HERBICIDE CONTAINING SAID DERIVATIVE AS ACTIVE INGREDIENT, METHOD FOR USING HERBICIDE, AND METHOD FOR PREPARING AGROCHEMICAL COMPOSITION” (HOKKO CHEMICAL INDUSTRY CO., LTD., priority 2023, dated 2024).

How the values were obtained:
Type in all cases: in vivo
Digitaria ciliaris = test: Test Example 8: herbicidal effect test by stem and leaf treatment in upland field (low dose); details: Digitaria ciliaris; 7.5 g per 10 ares; sprayed seven days after sowing, upland soil; 14 days after application; read-out: weed inhibition rate
Echinochloa crus-galli [1] = test: as above; details: Echinochloa crus-galli; 7.5 g per 10 ares; sprayed seven days after sowing, upland soil; 14 days after application; read-out: weed inhibition rate
Monochoria vaginalis [2] = test: Test Example 1: herbicidal effect test by soil application in paddy rice; details: Pontederia vaginalis, soil, 336 h; 120 g active ingredient per 10 ares; applied immediately after sowing, flooded pots; 14 days after application; read-out: weed inhibition rate
Outline: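 Pre-emergence test in puddled, flooded paddy soil (about 3 cm water), 30 seeds per weed sown at 0–1 cm depth in a glass greenhouse. Emulsifiable concentrate diluted in water and dropped onto the pots straight after sowing at 120 g a.i. per 10 ares. Weed inhibition (%) scored at 14 days, in duplicate.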

Scirpus juncoides [3] = test: as above; details: 120 g active ingredient per 10 ares, applied immediately after sowing, flooded pots, 14 days after application; for pest or weed control at 1200 g/ha: Schoenoplectiella juncoides, soil, 336 h, read-out: weed inhibition rate
Outline: (§1)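 Paddy soil in Wagner pots (1/10,000 acre), fertilized and puddled; 30 seeds per species sown at 0–1 cm, flooded to ~3 cm, greenhouse. Water-diluted emulsifiable concentrate dropped onto flooded pots right after sowing at 120 g active ingredient per 10 ares.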

[4] = system: Echinochloa crus-galli var. formosensis; test: as above; details: 120 g active ingredient per 10 ares, applied immediately after sowing, flooded pots, 14 days after application; for pest or weed control at 1200 g/ha: Echinochloa crus-galli, soil, 336 h, read-out: weed inhibition rate
Outline: as §1

[5] = system: Echinochloa crus-galli var. formosensis; test: Test Example 5: herbicidal effect test by soil application in paddy rice (low dose); details: Echinochloa crus-galli, soil, 336 h; 7.5 g per 10 ares; applied immediately after sowing, flooded pots; 14 days after application; read-out: weed inhibition rate
Outline: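 Paddy soil in Wagner pots was fertilized (N:P:K 16:16:16), puddled, sown with 30 seeds per weed species at 0–1 cm, then flooded to ~3 cm in a glass greenhouse. Emulsifiable concentrate diluted in water was dropper-applied into floodwater immediately, at 7.5 g active ingredient per 10 ares; duplicates, scored at 14 days.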

Scirpus juncoides [6] = test: Test Example 2: herbicidal effect test by application during growth period of paddy rice; details: Schoenoplectiella juncoides; 120 g per 10 ares; applied seven days after sowing, flooded pots; 14 days after application; read-out: weed inhibition rate
Outline: (§2)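 Paddy soil in Wagner pots was puddled with N:P:K 16:16:16 fertilizer, sown with 30 weed seeds per species at 0–1 cm and flooded to about 3 cm. Seven days after sowing, a water-diluted emulsifiable concentrate was dropped onto the water at 120 g active ingredient per 10 ares. Weed inhibition (%) was scored at 14 days, in duplicate.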

[7] = system: Echinochloa crus-galli var. formosensis; test: as above; details: Echinochloa crus-galli; 120 g per 10 ares; applied seven days after sowing, flooded pots; 14 days after application; read-out: weed inhibition rate
Outline: as §2

Monochoria vaginalis [8] = test: as above; details: Pontederia vaginalis; 120 g per 10 ares; applied seven days after sowing, flooded pots; 14 days after application; read-out: weed inhibition rate
Outline: as §2

Echinochloa crus-galli [9] = test: Test Example 4: herbicidal effect test by stem and leaf treatment in upland field; details: Echinochloa crus-galli; 120 g per 10 ares; sprayed seven days after sowing, upland soil; 14 days after application; read-out: weed inhibition rate
Scirpus juncoides [10] = test: Test Example 5: herbicidal effect test by soil application in paddy rice (low dose); details: Schoenoplectiella juncoides, 336 h, 7.5 g per 10 ares, applied immediately after sowing, flooded pots, 14 days after application, read-out: weed inhibition rate
Method: (§3) The present test was conducted in duplicate for each chemical concentration group, and the weed inhibition rate (%) was determined 14 days after chemical application using the following formula (Math. 1). [formula]
(§4) Wagner pots with an area of […] were filled with paddy soil, followed by addition of water and incorporation of chemical fertilizer (N:P:K = 16:16:16), after which puddling was performed. After that, seeds of Echinochloa crus-galli var. formosensis, broad-leaved weeds (Monochoria vaginalis), and Scirpus juncoides were sown at a depth of 0 cm to 1 cm, 30 seeds each. Immediately after sowing, the pots were flooded and a water depth of approximately 3 cm was maintained. Subsequent management was conducted in a glass greenhouse. Immediately thereafter, an emulsifiable concentrate prepared according to Formulation Example 5 using the compound shown below was diluted with water, and a specified amount of the diluted solution was applied by dropper. The amount of the active ingredient to be applied was equivalent to 7.5 g per 10 ares.
(§5) The present test was conducted in duplicate for each chemical concentration group, and the herbicidal effect was evaluated 14 days after chemical application using the same criteria as in Test Example 1.

Monochoria vaginalis [11] = test: as above; details: Pontederia vaginalis, 336 h, 7.5 g per 10 ares, applied immediately after sowing, flooded pots, 14 days after application, read-out: weed inhibition rate
Method: as §3, §4, §5

CC(C)CC1C[C@]2(C)O[C@@]1(C(C)C)C[C@H]2OCc1ccccc1F (stereo partly drawn) [1-915, (1S,2R,4R)-2-((2-fluorobenzyl)oxy)-5-isobutyl-4-isopropyl-1-methyl-7-oxabicyclo[2.2.1]heptane]
≥ 80%: inhibition at 75 g/ha (Digitaria ciliaris) | inhibition at 75 g/ha (Echinochloa crus-galli [1]) | pest or weed control at 1200 g/ha (Monochoria vaginalis [2]) | pest or weed control at 1200 g/ha (Scirpus juncoides [3]) | pest or weed control at 1200 g/ha [4] | inhibition at 75 g/ha [5] | inhibition at 1200 g/ha (Scirpus juncoides [6]) | inhibition at 1200 g/ha [7] | inhibition at 1200 g/ha (Monochoria vaginalis [8]) | inhibition at 1200 g/ha (Echinochloa crus-galli [9]) | inhibition at 75 g/ha (Scirpus juncoides [10])

CO[C@H]1C[C@]2(C)O[C@@]1(C(C)C)C[C@H]2OCc1ccccc1C [1-151, (1 S,2R,4R,5S)-4-isopropyl-5-methoxy-l-methyl-2-((2-methylbenzyl)oxy)-7-oxabicyclo[2.2.1]heptane]
≥ 80%: inhibition at 75 g/ha (Digitaria ciliaris) | inhibition at 75 g/ha (Echinochloa crus-galli [1]) | weed inhibition rate (Scirpus juncoides [3]) | weed inhibition rate [4] | inhibition at 75 g/ha [5] | inhibition at 1200 g/ha (Scirpus juncoides [6]) | inhibition at 1200 g/ha [7] | inhibition at 1200 g/ha (Monochoria vaginalis [8]) | inhibition at 1200 g/ha (Echinochloa crus-galli [9]) | inhibition at 75 g/ha (Scirpus juncoides [10])

CC(C)[C@]12C[C@@H](OCc3ccccc3F)[C@](C)(C[C@@H]1OCc1ccccc1F)O2 [1-603, (1S,2R,4R,5S)-2,5-bis[(2-fluorophenyl)methoxy]-1-methyl-4-isopropyl-7-oxabicyclo[2.2.1]heptane]
≥ 80%: pest or weed control at 1200 g/ha (Monochoria vaginalis [2]) | pest or weed control at 1200 g/ha (Scirpus juncoides [3]) | pest or weed control at 1200 g/ha [4] | inhibition at 75 g/ha [5] | inhibition at 1200 g/ha (Scirpus juncoides [6]) | inhibition at 1200 g/ha [7] | inhibition at 1200 g/ha (Monochoria vaginalis [8]) | inhibition at 1200 g/ha (Echinochloa crus-galli [9]) | inhibition at 75 g/ha (Monochoria vaginalis [11])

CC(C)[C@]12C[C@@H](OCc3c(F)cccc3F)[C@](C)(C[C@@H]1F)O2 [1-7, (1S,2R,4R,5S)-2-((2,6-difluorobenzyl)oxy)-5-fluoro-4-isopropyl-1-methyl-7-oxabicyclo[2.2.1]heptane]
≥ 80%: inhibition at 75 g/ha (Digitaria ciliaris) | inhibition at 75 g/ha (Echinochloa crus-galli [1]) | pest or weed control at 1200 g/ha (Monochoria vaginalis [2]) | pest or weed control at 1200 g/ha (Scirpus juncoides [3]) | pest or weed control at 1200 g/ha [4] | inhibition at 75 g/ha [5] | inhibition at 1200 g/ha (Scirpus juncoides [6]) | inhibition at 1200 g/ha [7] | inhibition at 1200 g/ha (Monochoria vaginalis [8]) | inhibition at 1200 g/ha (Echinochloa crus-galli [9]) | inhibition at 75 g/ha (Scirpus juncoides [10])

CC(C)[C@]12C=C[C@](C)(O1)C(OCc1ccccc1F)C2 (mixture of isomers) [3-5, (1R,4S,SR)-5-[(2-fluorophenyl)methoxy]-4-methyl-1-isopropyl-7-oxabicyclo[2.2.1]hept-2-ene]
≥ 80%: inhibition at 75 g/ha (Digitaria ciliaris) | inhibition at 75 g/ha (Echinochloa crus-galli [1]) | pest or weed control at 1200 g/ha (Monochoria vaginalis [2]) | pest or weed control at 1200 g/ha (Scirpus juncoides [3]) | pest or weed control at 1200 g/ha [4] | inhibition at 75 g/ha [5] | inhibition at 1200 g/ha (Scirpus juncoides [6]) | inhibition at 1200 g/ha [7] | inhibition at 1200 g/ha (Monochoria vaginalis [8]) | inhibition at 1200 g/ha (Echinochloa crus-galli [9]) | inhibition at 75 g/ha (Scirpus juncoides [10])

CC(C)[C@]12C[C@@H](OCc3c(F)cccc3F)[C@](C)(CC1C)O2 (stereo partly drawn) [1-111, (1S,2R,4R)-2-((2,6-difluorobenzyl)oxy)-4-isopropyl-1,5-dimethyl-7-oxabicyclo[2.2.1]heptane]
≥ 80%: inhibition at 75 g/ha (Digitaria ciliaris) | inhibition at 75 g/ha (Echinochloa crus-galli [1]) | pest or weed control at 1200 g/ha (Monochoria vaginalis [2]) | pest or weed control at 1200 g/ha (Scirpus juncoides [3]) | pest or weed control at 1200 g/ha [4] | inhibition at 75 g/ha [5] | inhibition at 1200 g/ha (Scirpus juncoides [6]) | inhibition at 1200 g/ha [7] | inhibition at 1200 g/ha (Monochoria vaginalis [8]) | inhibition at 1200 g/ha (Echinochloa crus-galli [9])
